Source: BigSolDB 2.1

## COC(=O)C1=C(C)NC(C)=C(C(=O)OCC(C)C)C1c1ccccc1[N+](=O)[O-] (stereo not given)
In acetonitrile, 278.15 K
  solubility (mole fraction): 0.00849
In acetonitrile, 283.15 K
  solubility (mole fraction): 0.0102
In acetonitrile, 288.15 K
  solubility (mole fraction): 0.012
In acetonitrile, 293.15 K
  solubility (mole fraction): 0.0144
In acetonitrile, 298.15 K
  solubility (mole fraction): 0.0169
In acetonitrile, 303.15 K
  solubility (mole fraction): 0.0197
In acetonitrile, 308.15 K
  solubility (mole fraction): 0.0232
In acetonitrile, 313.15 K
  solubility (mole fraction): 0.0271
In acetonitrile, 318.15 K
  solubility (mole fraction): 0.0317
In cyclohexane, 283.15 K
  solubility (mole fraction): 5.7e-05
In cyclohexane, 288.15 K
  solubility (mole fraction): 7.3e-05
In cyclohexane, 293.15 K
  solubility (mole fraction): 9.1e-05
In cyclohexane, 298.15 K
  solubility (mole fraction): 0.000111
In cyclohexane, 303.15 K
  solubility (mole fraction): 0.000137
In cyclohexane, 308.15 K
  solubility (mole fraction): 0.000164
In cyclohexane, 313.15 K
  solubility (mole fraction): 0.000198
In cyclohexane, 318.15 K
  solubility (mole fraction): 0.000237
In ethanol, 278.15 K
  solubility (mole fraction): 0.00278
In ethanol, 283.15 K
  solubility (mole fraction): 0.00348
In ethanol, 288.15 K
  solubility (mole fraction): 0.0043
In ethanol, 293.15 K
  solubility (mole fraction): 0.00529
In ethanol, 298.15 K
  solubility (mole fraction): 0.00648
In ethanol, 303.15 K
  solubility (mole fraction): 0.00789
In ethanol, 308.15 K
  solubility (mole fraction): 0.00935
In ethanol, 313.15 K
  solubility (mole fraction): 0.0112
In ethanol, 318.15 K
  solubility (mole fraction): 0.0134
In ethyl acetate, 278.15 K
  solubility (mole fraction): 0.0166
In ethyl acetate, 283.15 K
  solubility (mole fraction): 0.0188
In ethyl acetate, 288.15 K
  solubility (mole fraction): 0.0215
In ethyl acetate, 293.15 K
  solubility (mole fraction): 0.0246
In ethyl acetate, 298.15 K
  solubility (mole fraction): 0.0278
In ethyl acetate, 303.15 K
  solubility (mole fraction): 0.0316
In ethyl acetate, 308.15 K
  solubility (mole fraction): 0.0358
In ethyl acetate, 313.15 K
  solubility (mole fraction): 0.0401
In ethyl acetate, 318.15 K
  solubility (mole fraction): 0.0457
In isopropanol, 278.15 K
  solubility (mole fraction): 0.00467
In isopropanol, 283.15 K
  solubility (mole fraction): 0.00563
In isopropanol, 288.15 K
  solubility (mole fraction): 0.00669
In isopropanol, 293.15 K
  solubility (mole fraction): 0.00796
In isopropanol, 298.15 K
  solubility (mole fraction): 0.00935
In isopropanol, 303.15 K
  solubility (mole fraction): 0.011
In isopropanol, 308.15 K
  solubility (mole fraction): 0.0129
In isopropanol, 313.15 K
  solubility (mole fraction): 0.0152
In isopropanol, 318.15 K
  solubility (mole fraction): 0.0178
In n-butanol, 278.15 K
  solubility (mole fraction): 0.00573
In n-butanol, 283.15 K
  solubility (mole fraction): 0.00671
In n-butanol, 288.15 K
  solubility (mole fraction): 0.00795
In n-butanol, 293.15 K
  solubility (mole fraction): 0.00938
In n-butanol, 298.15 K
  solubility (mole fraction): 0.0111
In n-butanol, 303.15 K
  solubility (mole fraction): 0.0129
In n-butanol, 308.15 K
  solubility (mole fraction): 0.0149
In n-butanol, 313.15 K
  solubility (mole fraction): 0.0173
In n-butanol, 318.15 K
  solubility (mole fraction): 0.0202
In n-propanol, 278.15 K
  solubility (mole fraction): 0.00378
In n-propanol, 283.15 K
  solubility (mole fraction): 0.00455
In n-propanol, 288.15 K
  solubility (mole fraction): 0.00545
In n-propanol, 293.15 K
  solubility (mole fraction): 0.00657
In n-propanol, 298.15 K
  solubility (mole fraction): 0.0078
In n-propanol, 303.15 K
  solubility (mole fraction): 0.00941
In n-propanol, 308.15 K
  solubility (mole fraction): 0.0111
In n-propanol, 313.15 K
  solubility (mole fraction): 0.013
In n-propanol, 318.15 K
  solubility (mole fraction): 0.0155
In toluene, 278.15 K
  solubility (mole fraction): 0.00154
In toluene, 283.15 K
  solubility (mole fraction): 0.00183
In toluene, 288.15 K
  solubility (mole fraction): 0.00218
In toluene, 293.15 K
  solubility (mole fraction): 0.0026
In toluene, 298.15 K
  solubility (mole fraction): 0.00309
In toluene, 303.15 K
  solubility (mole fraction): 0.00366
In toluene, 308.15 K
  solubility (mole fraction): 0.00428
In toluene, 313.15 K
  solubility (mole fraction): 0.005
In toluene, 318.15 K
  solubility (mole fraction): 0.00588
In water, 278.15 K
  solubility (mole fraction): 4e-06
In water, 283.15 K
  solubility (mole fraction): 5e-06
In water, 288.15 K
  solubility (mole fraction): 7e-06
In water, 293.15 K
  solubility (mole fraction): 9e-06
In water, 298.15 K
  solubility (mole fraction): 1.2e-05
In water, 303.15 K
  solubility (mole fraction): 1.5e-05
In water, 308.15 K
  solubility (mole fraction): 1.9e-05
In water, 313.15 K
  solubility (mole fraction): 2.4e-05
In water, 318.15 K
  solubility (mole fraction): 3e-05
